From ChEMBL document CHEMBL3872209, “Inhibitory activity evaluation and mechanistic studies of tetracyclic oxindole derivatives as α-glucosidase inhibitors” (Eur J Med Chem, 2016)
Calls of active or inactive are those of the source. No cut-off for these calls is given here.

What was measured:
[1] = Inhibition of Baker's yeast alpha-glucosidase using pNGP as substrate after 30 mins by spectrophotometric analysis; parameters: species or system Saccharomyces cerevisiae
Saccharomyces cerevisiae [2] = experiment: Mixed type inhibition of Baker's yeast alpha-glucosidase at 1 to 1.5 uM using varying pNGP substrate levels preincubated for 30 mins followed by substrate addition by Lineweaver-Burk plot method
Saccharomyces cerevisiae [3] = experiment: […] inhibition of Baker's yeast alpha-glucosidase at 0.5 to 1 uM after 30 mins by Lineweaver-Burk plot method
Saccharomyces cerevisiae [4] = experiment: Irreversible inhibition of Baker's yeast alpha-glucosidase at 20 uM after 24 hrs by dialysis method
Saccharomyces cerevisiae [5] = experiment: Binding affinity to Baker's yeast alpha-glucosidase at 5 to 50 uM after 30 mins by tryptophan fluorescence spectrophotometric method
Saccharomyces cerevisiae [6] = experiment: Binding affinity to Baker's yeast alpha-glucosidase after 30 mins by tryptophan fluorescence spectrophotometric method
Saccharomyces cerevisiae [7] = experiment: Binding affinity to Baker's yeast alpha-glucosidase assessed as reduction in enzyme surface hydrophobicity after 30 mins by Bis-ANS dye based spectrofluorometric method
Saccharomyces cerevisiae [8] = experiment: Potency index, ratio of acarbose IC50 to compound IC50 for inhibition of Baker's yeast alpha-glucosidase

Row | IC50 [1] | Compound | other results
1 | 5.1 µM | COc1ccc(NC(=O)CC2Oc3ccccc3-c3ccc4c(c32)C(=O)C(=O)N4Cc2ccc(C(F)(F)F)cc2)cc1 (stereo not drawn) | –
2 | 4.8 µM | O=C(O)CC1Oc2ccccc2-c2ccc3c(c21)C(=O)C(=O)N3Cc1ccc(C(F)(F)F)cc1 (stereo not drawn) | –
3 | 4.4 µM | O=C1C(=O)N(Cc2ccc(C(F)(F)F)cc2)c2ccc3c(c21)C(CC(=O)N1CCCCC1)Oc1ccccc1-3 (stereo not drawn) | –
4 | 37.2 µM | COC(=O)CC1Nc2ccccc2-c2ccc3c(c21)C(=O)C(=O)N3Cc1ccc(C(F)(F)F)cc1 (stereo not drawn) | –
5 | 187 µM | CN1C(=O)C(=O)c2c1ccc1c2C(CC(=O)O)Nc2ccccc2-1 (stereo not drawn) | –
6 | 8.4 µM | CN1C(=O)C(=O)c2c1ccc1c2C(CC(=O)Nc2ccc(-c3ccc(N)cc3)cc2)Nc2ccccc2-1 (stereo not drawn) | –
7 | 80 µM | O=C(O)CC1Nc2ccccc2-c2ccc3c(c21)C(=O)C(=O)N3Cc1ccc(C(F)(F)F)cc1 (stereo not drawn) | –
8 | 12.1 µM | COC(=O)CC1Oc2ccccc2-c2ccc3c(c21)C(=O)C(=O)N3Cc1ccccc1 (stereo not drawn) | –
9 | 4 µM | O=C(CC1Oc2ccccc2-c2ccc3c(c21)C(=O)C(=O)N3Cc1ccc(C(F)(F)F)cc1)Nc1ccccc1 (stereo not drawn) | –
10 | 15.7 µM | COC(=O)CC1Oc2ccccc2-c2ccc3c(c21)C(=O)C(=O)N3Cc1ccc(C(F)(F)F)cc1 (stereo not drawn) | –
11 | 4.6 µM | O=C(CC1Nc2ccccc2-c2ccc3c(c21)C(=O)C(=O)N3Cc1ccc(C(F)(F)F)cc1)Nc1ccccc1 (stereo not drawn) | –
12 | 180 µM | COC(=O)CC1Oc2ccccc2-c2cc3c(cc21)N(C)C(=O)C3=O (stereo not drawn) | –
13 | 0.7 µM | Nc1ccc(-c2ccc(NC(=O)CC3Oc4ccccc4-c4ccc5c(c43)C(=O)C(=O)N5Cc3ccc(C(F)(F)F)cc3)cc2)cc1 (stereo not drawn) | inhibition (Saccharomyces cerevisiae [2]): Active; inhibition (Saccharomyces cerevisiae [3]): Active; inhibition (Saccharomyces cerevisiae [4]): Active; Activity (Saccharomyces cerevisiae [5]): Active; Activity (Saccharomyces cerevisiae [6]): Dose-dependent effect; Activity (Saccharomyces cerevisiae [7]): Dose-dependent effect; Ratio IC50 (Saccharomyces cerevisiae [8]): 165 to 170
14 | 32.8 µM | O=C1C(=O)N(Cc2ccc(C(F)(F)F)cc2)c2ccc3c(c21)C(CC(=O)N1CCNCC1)Oc1ccccc1-3 (stereo not drawn) | –
15 | 105 µM | COC(=O)CC1Oc2ccccc2-c2ccc3c(c21)C(=O)C(=O)N3C (stereo not drawn) | –
16 | 11.8 µM | CNC(=O)CC1Oc2ccccc2-c2ccc3c(c21)C(=O)C(=O)N3Cc1ccc(C(F)(F)F)cc1 (stereo not drawn) | –
17 | 1.9 µM | Nc1ccc(-c2ccc(NC(=O)CC3Nc4ccccc4-c4ccc5c(c43)C(=O)C(=O)N5Cc3ccc(C(F)(F)F)cc3)cc2)cc1 (stereo not drawn) | –
18 | > 300 µM | O=C1C(=O)N(Cc2ccc(C(F)(F)F)cc2)c2ccc3c(c21)C(CC(=O)N1CCOCC1)Oc1ccccc1-3 (stereo not drawn) | –

Row | IC50 [1] | Compound | other results
19 | 45.3 µM | COC(=O)CC1Nc2ccccc2-c2ccc3c(c21)C(=O)C(=O)N3Cc1ccc(OC)cc1 (stereo not drawn) | –
20 | 16 µM | O=C(O)CC1Oc2ccccc2-c2ccc3c(c21)C(=O)C(=O)N3Cc1ccccc1 (stereo not drawn) | –
21 | > 300 µM | Cc1c2c(cc3c1N(C)C(=O)C3=O)-c1ccccc1OC2CC(=O)O (stereo not drawn) | –
22 | 18.5 µM | COC(=O)CC1Oc2ccccc2-c2cc3c(c(C)c21)N(C)C(=O)C3=O (stereo not drawn) | –
23 | 162 µM | CN(C)CCNC(=O)CC1Oc2ccccc2-c2ccc3c(c21)C(=O)C(=O)N3Cc1ccc(C(F)(F)F)cc1 (stereo not drawn) | –
24 | 226 µM | CN1C(=O)C(=O)c2c1ccc1c2C(CC(=O)Nc2ccccc2)Nc2ccccc2-1 (stereo not drawn) | –
25 | 5.2 µM | Cc1c2c(cc3c1N(C)C(=O)C3=O)-c1ccccc1OC2CC(=O)Nc1ccc(-c2ccc(N)cc2)cc1 (stereo not drawn) | –
26 | 67 µM | O=C(O)CC1Oc2ccccc2-c2ccc3c(c21)C(F)(F)C(=O)N3Cc1ccc(C(F)(F)F)cc1 (stereo not drawn) | –
27 | 6.2 µM | O=C(CC1Oc2ccccc2-c2ccc3c(c21)C(=O)C(=O)N3Cc1ccc(C(F)(F)F)cc1)Nc1ccc(O)cc1 (stereo not drawn) | –
28 | 36.1 µM | Cc1c2c(cc3c1N(C)C(=O)C3=O)-c1ccccc1OC2CC(=O)Nc1ccccc1 (stereo not drawn) | –
29 | 32.3 µM | COC(=O)CC1Oc2ccccc2-c2ccc3c(c21)C(=O)C(=O)N3Cc1ccc(OC)cc1 (stereo not drawn) | –
30 | 43.9 µM | NC(=O)CC1Oc2ccccc2-c2ccc3c(c21)C(=O)C(=O)N3Cc1ccc(C(F)(F)F)cc1 (stereo not drawn) | –
31 | 51.5 µM | Cc1cc2c(c3c1N(Cc1ccc(C(F)(F)F)cc1)C(=O)C3=O)C(CC(=O)O)Oc1ccccc1-2 (stereo not drawn) | –
32 | 160 µM | Cc1c2c(cc3c1N(Cc1ccc(C(F)(F)F)cc1)C(=O)C3=O)-c1ccccc1OC2CC(=O)O (stereo not drawn) | –
33 | > 300 µM | CNC(=O)CC1Oc2ccccc2-c2cc3c(c(C)c21)N(C)C(=O)C3=O (stereo not drawn) | –
34 | 287 µM | COC(=O)CC1Nc2ccccc2-c2ccc3c(c21)C(=O)C(=O)N3C (stereo not drawn) | –
35 | 26.3 µM | COC(=O)CC1Oc2ccccc2-c2cc3c(c(C)c21)N(Cc1ccc(C(F)(F)F)cc1)C(=O)C3=O (stereo not drawn) | –
36 | 47.7 µM | O=C(O)CC1Oc2ccccc2-c2ccc3c(c21)/C(=N/O)C(=O)N3Cc1ccc(C(F)(F)F)cc1 (stereo not drawn) | –
